Measured values as given in article PMC7672456 (Nucleic Acids Research, 2020).

Columns and labels:
[1] = molecular target: T1, PfLysRS (Plasmodium falciparum, UniProt Q8IDJ8); assay: Thermal shift assay; format: binding; details: for increase of Tm of PfLysRS: 200 μM compound
[2] = molecular target: T1, PfLysRS; assay: Surface plasmon resonance; format: binding
[3] = molecular target: T2, HsLysRS (Homo sapiens, UniProt Q15046); assay: ATP hydrolysis assay; format: biochemical
[4] = molecular target: T2, HsLysRS; assay: Thermal shift assay; format: binding; details: in the presence or absence of L-lysine
[5] = test system: P. falciparum strain 3D7; assay: In vitro Plasmodium growth assay; format: cell-based, Plasmodium falciparum
[6] = test system: mammalian protein translation system; assay: Mammalian protein translation assay in rabbit reticulocyte lysate; format: biochemical; details: firefly luciferase mRNA
[7] = phase I, patients, oral; cited from earlier work
[8] = molecular target: T1, PfLysRS; details: cited from earlier work

T2 sequence (Q15046 70-581): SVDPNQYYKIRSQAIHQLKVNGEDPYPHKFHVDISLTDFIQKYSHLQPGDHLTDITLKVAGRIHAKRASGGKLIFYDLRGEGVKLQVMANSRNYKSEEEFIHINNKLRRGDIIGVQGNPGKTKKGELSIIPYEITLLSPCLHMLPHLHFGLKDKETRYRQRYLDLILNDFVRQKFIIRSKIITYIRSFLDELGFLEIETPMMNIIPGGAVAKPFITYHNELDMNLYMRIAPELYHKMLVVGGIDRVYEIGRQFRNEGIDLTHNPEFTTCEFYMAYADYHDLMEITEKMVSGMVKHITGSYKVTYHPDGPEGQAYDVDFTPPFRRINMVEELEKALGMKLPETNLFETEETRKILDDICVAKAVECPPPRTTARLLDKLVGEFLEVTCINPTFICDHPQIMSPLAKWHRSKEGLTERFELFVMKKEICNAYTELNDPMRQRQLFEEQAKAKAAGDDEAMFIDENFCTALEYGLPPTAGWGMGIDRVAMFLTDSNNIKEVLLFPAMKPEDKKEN
T1 sequence (Q8IDJ8 77-583 limits assumed): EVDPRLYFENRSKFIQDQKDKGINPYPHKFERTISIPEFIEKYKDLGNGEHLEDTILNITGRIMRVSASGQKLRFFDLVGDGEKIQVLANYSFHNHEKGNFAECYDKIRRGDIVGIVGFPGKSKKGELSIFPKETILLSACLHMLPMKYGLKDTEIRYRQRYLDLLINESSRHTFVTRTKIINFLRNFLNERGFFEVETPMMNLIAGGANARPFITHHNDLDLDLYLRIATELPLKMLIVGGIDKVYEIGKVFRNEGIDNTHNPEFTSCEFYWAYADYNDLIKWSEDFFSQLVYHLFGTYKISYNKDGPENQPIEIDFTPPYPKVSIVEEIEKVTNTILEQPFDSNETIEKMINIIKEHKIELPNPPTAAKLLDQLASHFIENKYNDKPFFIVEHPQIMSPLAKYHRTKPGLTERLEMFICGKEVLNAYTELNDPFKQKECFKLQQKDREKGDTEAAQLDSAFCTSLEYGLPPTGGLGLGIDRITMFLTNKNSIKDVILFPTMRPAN

Row | Compound | Kd [1] [µM] | increase of Tm of PfLysRS ([1]; in the presence of L-lysine (500 μM)) [°C] | increase of Tm of PfLysRS ([1]; without L-lysine, 10 μM PfLysRS) [°C] | Kd [2] [µM] | koff [2] [s⁻¹] | kon [2] [M⁻¹ s⁻¹] | IC50 [3] [µM] | fold less potent on HsLysRS than on PfLysRS (IC50 ratio) ([3]; ATP hydrolysis IC50 HsLysRS versus PfLysRS) | thermal stability of HsLysRS [4] | IC50 ([5]; Plasmodium falciparum, 3D7, 72 h) [µM] | parasite growth and morphology ([5]; synchronized ring stage, 25 μM, monitored over 72 h, Giemsa smears) | IC50 [6] [µM] | half-life range [7] [h] | median half-life [7] [h] | IC50 [8] [µM] | fold lower IC50 on PfLysRS compared to other eukaryotic LysRSs including human LysRS [8] [fold]
1 | COc1cc(N2CCC(N3CCN(C)CC3)CC2)ccc1Nc1ncnc(Nc2ccccc2S(=O)(=O)C(C)C)n1 [ASP3026, N-{2-Methoxy-4-[4-(4-methylpiperazin-1-yl)piperidin-1-yl]phenyl}-N'-[2-(propane-2-sulfonyl)phenyl]-1,3,5-triazine-2,4-diamine] | ~0.238 | 8.0 | 10.0 | 0.239 | 0.0063 | 26400 | > 250 | over 380 fold | could not increase the thermal stability | 5.61 ± 0.26 | stopped growing completely until they eventually died | > 1000 | 22 to 85 | 35 | – | –
2 | C[C@H]1CCC[C@H](C[C@H]2Cc3cc(O)cc(O)c3C(=O)O2)O1 [cladosporin] | – | – | – | – | – | – | – | – | – | – | – | – | – | – | ~0.004 | 1000
